Laboratory results reported in PMC11750672, “The in vivo metabolic pathway of Deg-AZM and in vitro investigations into the contribution of drug metabolizing enzymes and drug transporters in the drug interactions of Deg-AZM, a clinical-stage new transgelin agonist” (Frontiers in Pharmacology, 2025).

What was measured:
[1] = tested on: inactivated monomeric enzyme; assay: Recombinant CYPs phenotyping assay, inactivated enzyme control; assay type: in vitro ADME, human; details: control group with inactivated monomeric enzyme, 1.5 h
Procedure: (§1) Deg-AZM (1 μM) was treated with pooled NADPH (1 mM) and recombinant CYPs (rCYP1A2, rCYP2B6, rCYP2C8, rCYP2C9, rCYP2C19, rCYP2D6, and rCYP3A4, purchased from Research Institute for Liver Diseases Co. Ltd., Shanghai) at 25 pmol/mL for 90 min. The isoform-selective probe substrates served as positive controls (same as the positive controls in HLM phenotyping assays).

CYP1A2 = assay: CYP induction (mRNA, qPCR) in human hepatocytes; assay type: in vitro ADME; details: for CYP1A2 induction, % of PC: PC omeprazole 50 μM
Source text: (§2) After culture and complete induction, total mRNA was extracted by TRNzol RNA Extraction Kit (purchased from Tiangen Biochemical Technology Co., Ltd., Beijing). The RNA was reverse transcribed into cDNA according to the instructions of the Transcriptor First Strand cDNA Synthesis Kit (purchased from Roche, Switzerland). Using reverse transcribed cDNA as a template, amplifying the internal reference genes of β-Actin of the sample and target genes of CYP1A2, CYP2B6, and CYP3A4 respectively to compare the expression differences.

CYP3A4 = assay: CYP induction (mRNA, qPCR) in human hepatocytes; assay type: in vitro ADME; details: for CYP3A4 induction, % of PC: PC rifampicin 20 μM
Source text: as §2

rCYP3A4 = molecular target: T1, rCYP3A4 (Homo sapiens, UniProt P08684); assay: Recombinant CYPs phenotyping assay; assay type: in vitro ADME; details: 1 μM, 1.5 h
T1 construct: purchased Research Institute for Liver Diseases Co. Ltd., Shanghai
T1 sequence (P08684 whole entry): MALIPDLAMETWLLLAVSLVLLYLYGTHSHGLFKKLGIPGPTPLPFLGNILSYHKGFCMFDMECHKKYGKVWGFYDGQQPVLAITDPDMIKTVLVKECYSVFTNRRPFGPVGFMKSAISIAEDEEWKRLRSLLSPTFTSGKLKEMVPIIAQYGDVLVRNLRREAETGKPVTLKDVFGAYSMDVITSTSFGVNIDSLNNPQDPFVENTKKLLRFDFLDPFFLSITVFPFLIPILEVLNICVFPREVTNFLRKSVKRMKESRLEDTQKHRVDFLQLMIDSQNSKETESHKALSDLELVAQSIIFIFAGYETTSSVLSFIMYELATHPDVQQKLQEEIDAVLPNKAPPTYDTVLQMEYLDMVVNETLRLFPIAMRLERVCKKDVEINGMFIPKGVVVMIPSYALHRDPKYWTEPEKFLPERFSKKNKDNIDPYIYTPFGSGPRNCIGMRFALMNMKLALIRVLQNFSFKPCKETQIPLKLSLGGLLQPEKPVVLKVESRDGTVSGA
Procedure: as §1

P-gp [2] = molecular target: T2, P-gp (Homo sapiens, UniProt P08183); assay: Bidirectional transport in Caco-2 cell monolayer with P-gp inhibitor quinidine; assay type: in vitro ADME; details: ER > 2, reduced after quinidine
T2 construct: evaluated using Caco-2 cell monolayer both apical-to-basolateral (A-B) and basolateral-to-apical (B-A) directions; endogenous in cells; host or cells: Caco-2
T2 sequence (P08183 whole entry): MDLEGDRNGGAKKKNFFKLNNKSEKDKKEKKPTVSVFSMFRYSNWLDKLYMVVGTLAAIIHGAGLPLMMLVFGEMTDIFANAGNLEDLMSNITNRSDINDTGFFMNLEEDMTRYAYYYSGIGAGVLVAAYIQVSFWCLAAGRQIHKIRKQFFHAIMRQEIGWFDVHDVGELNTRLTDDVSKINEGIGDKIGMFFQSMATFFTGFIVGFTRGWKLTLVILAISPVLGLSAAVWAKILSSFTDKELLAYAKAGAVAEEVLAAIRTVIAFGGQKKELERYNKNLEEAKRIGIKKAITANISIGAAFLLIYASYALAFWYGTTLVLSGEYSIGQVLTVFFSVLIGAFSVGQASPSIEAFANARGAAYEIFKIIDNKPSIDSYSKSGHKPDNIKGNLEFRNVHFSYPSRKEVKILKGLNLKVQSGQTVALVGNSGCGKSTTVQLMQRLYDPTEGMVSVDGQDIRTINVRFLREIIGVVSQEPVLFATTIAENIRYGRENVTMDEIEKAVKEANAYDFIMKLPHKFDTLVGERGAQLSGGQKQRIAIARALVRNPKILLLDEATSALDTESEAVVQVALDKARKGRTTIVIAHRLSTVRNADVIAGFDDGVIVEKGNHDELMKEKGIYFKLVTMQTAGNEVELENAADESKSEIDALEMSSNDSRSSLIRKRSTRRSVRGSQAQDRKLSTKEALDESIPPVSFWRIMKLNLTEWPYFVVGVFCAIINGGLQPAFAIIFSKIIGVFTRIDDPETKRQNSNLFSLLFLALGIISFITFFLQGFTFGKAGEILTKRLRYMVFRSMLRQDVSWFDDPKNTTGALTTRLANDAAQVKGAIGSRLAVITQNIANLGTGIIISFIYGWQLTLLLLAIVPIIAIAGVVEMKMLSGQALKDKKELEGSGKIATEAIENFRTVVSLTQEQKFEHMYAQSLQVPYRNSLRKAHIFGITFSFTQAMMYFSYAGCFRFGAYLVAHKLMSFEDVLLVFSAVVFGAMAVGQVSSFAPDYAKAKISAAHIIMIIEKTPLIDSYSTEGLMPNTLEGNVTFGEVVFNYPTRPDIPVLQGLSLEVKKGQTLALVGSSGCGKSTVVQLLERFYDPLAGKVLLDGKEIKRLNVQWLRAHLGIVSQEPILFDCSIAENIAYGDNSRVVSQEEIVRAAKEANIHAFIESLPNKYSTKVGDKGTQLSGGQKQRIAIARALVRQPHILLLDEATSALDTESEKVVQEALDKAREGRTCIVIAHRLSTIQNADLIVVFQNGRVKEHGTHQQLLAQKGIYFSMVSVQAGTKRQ
Procedure: (§3) The human colon adenocarcinoma Caco-2 cell line was provided by Institute of Basic Medicine, Chinese Academy of Medical Sciences (Beijing, China). Caco-2 cells were cultured in a high sugar DMEM medium containing 10% (v/v) fetal bovine serum at 37°C and 5% CO2 incubator. Caco-2 cells (2.5 ×10^5/mL) was inoculated into Transwell polycarbonate membrane 12 well plate. The culture medium was changed every 2 days for the first 14 days, and then every day. After 21 consecutive days, fully differentiated cell monolayers were obtained for drug transport assays.
(§4) Transepithelial electrical resistance (TEER) was used to indicate monolayer integrity. The electrode of the Millcell ERS-2 voltammeter was placed in HBSS solution for 20 min to pre-balance. At the same time, the culture medium was removed from the Transwell culture plate, 0.5 mL of pre-heated HBSS solution was added into the Apical (AP) of transwell, 1.5 mL of pre-heated HBSS solution was added into the Basolateral (BL) of transwell. After that, the transwell was balanced at 37°C for 20 min and then replaced the HBSS solution with the pre-heated HBSS solution, the TEER value was measured finally. Caco-2 cell monolayers with TEER >350 Ω cm^2 which means that the cells have formed a tight monolayer, were used for the experiment. The TEER value was calculated according to the following formula: TEER=TEERT ‐ TEERc×A where TEERT represented the TEER value (Ω) of the measured Transwell chamber with Caco-2 cells, TEERC was the TEER value (Ω) of the transwell chamber in the control group, and A was the membrane area of the transwell cavity (1.12 cm^2 in this experiment).
(§5) In order to evaluate the usability of the Transwell model research, [^3H] Propranolol (0.5 μCi/mL) and [^14C] PEG4000 (1 μCi/mL) served as high-permeability and impermeability controls to verify the uptake direction on Caco-2 cell monolayer, respectively. Rhodamine 123 was used as a positive control for efflux mechanism in bidirectional transport assay on Caco-2 cell monolayer.
(§6) The transmembrane permeability of Deg-AZM (2, 10 or 50 µM) and the potential to inhibit P-gp by Deg-AZM (2, 10 or 50 µM) were evaluated using Caco-2 cell monolayer both apical-to-basolateral (A-B) and basolateral-to-apical (B-A) directions at 37°C for 1 h, the experiments were conducted using quinidine (50 μM) as the inhibitor for P-gp. At the end of incubation, receiver and donor samples were both diluted by assay buffer and analyzed by LC-MS/MS.

P-gp [3] = tested on: T3, P-gp; assay: as above; assay type: in vitro ADME, human; details: human, Caco-2, with quinidine 50 μM, (+) quinidine 50 μM, 37°C 1 h, n = 3
T3 construct: evaluated using Caco-2 cell monolayer both apical-to-basolateral (A-B) and basolateral-to-apical (B-A) directions; endogenous in cells; host or cells: Caco-2
Procedure: as §3, §4, §5, §6

[4] = 5 μM, hepatocyte batch LHuf 17905B
[5] = 25 μM, hepatocyte batch LHuf 17905B
[6] = 100 μM, hepatocyte batch LHuf 17905B

CCC1OC(=O)C(C)C(O)C(C)C(O)C(C)(O)CC(C)CN(C)C(C)C(O)C1(C)O (stereo not drawn) [Deg-AZM, Deglycosylated azithromycin]
Residual proportion of Deg-AZM [1]: 107% | CYP1A2 induction, % of PC (CYP1A2; 5 μM, batch HUB): −0.318% | CYP1A2 induction, % of PC (CYP1A2; 5 μM, batch LHuf 17905B): −0.507% | CYP1A2 induction, % of PC (CYP1A2; 5 μM, batch MWB): 0.0293% | CYP1A2 mRNA induction, times of control group (CYP1A2; 5 μM, hepatocyte batch HUB): 0.850 | CYP1A2 mRNA induction, times of control group (CYP1A2; [4]): 0.721 | CYP1A2 mRNA induction, times of control group (CYP1A2; 5 μM, hepatocyte batch MWB): 1.02 | CYP1A2 induction, % of PC (CYP1A2; 25 μM, batch HUB): −0.349% | CYP1A2 induction, % of PC (CYP1A2; 25 μM, batch LHuf 17905B): −0.569% | CYP1A2 induction, % of PC (CYP1A2; 25 μM, batch MWB): −0.0814% | CYP1A2 mRNA induction, times of control group (CYP1A2; 25 μM, hepatocyte batch HUB): 0.835 | CYP1A2 mRNA induction, times of control group (CYP1A2; [5]): 0.687 | CYP1A2 mRNA induction, times of control group (CYP1A2; 25 μM, hepatocyte batch MWB): 0.948 | CYP1A2 induction, % of PC (CYP1A2; 100 μM, batch HUB): 0.0545% | CYP1A2 induction, % of PC (CYP1A2; 100 μM, batch LHuf 17905B): −0.209% | CYP1A2 induction, % of PC (CYP1A2; 100 μM, batch MWB): −0.319% | CYP1A2 mRNA induction, times of control group (CYP1A2; 100 μM, hepatocyte batch HUB): 1.03 | CYP1A2 mRNA induction, times of control group (CYP1A2; [6]): 0.885 | CYP1A2 mRNA induction, times of control group (CYP1A2; 100 μM, hepatocyte batch MWB): 0.797 | Induction effect on CYP1A2 (conclusion) (CYP1A2; 5, 25, and 100 µM, three batches of human hepatocytes): no induction effect | CYP3A4 induction, % of PC (CYP3A4; 5 μM, batch HUB): 2.15% | CYP3A4 induction, % of PC (CYP3A4; 5 μM, batch LHuf 17905B): 5.55% | CYP3A4 induction, % of PC (CYP3A4; 5 μM, batch MWB): 1.99% | CYP3A4 mRNA induction, times of control group (CYP3A4; 5 μM, hepatocyte batch HUB): 1.80 | CYP3A4 mRNA induction, times of control group (CYP3A4; [4]): 2.30 | CYP3A4 mRNA induction, times of control group (CYP3A4; 5 μM, hepatocyte batch MWB): 1.96 | CYP3A4 induction, % of PC (CYP3A4; 25 μM, batch HUB): 3.06% | CYP3A4 induction, % of PC (CYP3A4; 25 μM, batch LHuf 17905B): 12.1% | CYP3A4 induction, % of PC (CYP3A4; 25 μM, batch MWB): 6.32% | CYP3A4 mRNA induction, times of control group (CYP3A4; 25 μM, hepatocyte batch HUB): 2.13 | CYP3A4 mRNA induction, times of control group (CYP3A4; [5]): 3.84 | CYP3A4 mRNA induction, times of control group (CYP3A4; 25 μM, hepatocyte batch MWB): 4.05 | CYP3A4 induction, % of PC (CYP3A4; 100 μM, batch HUB): 13.5% | CYP3A4 induction, % of PC (CYP3A4; 100 μM, batch LHuf 17905B): 54.2% | CYP3A4 induction, % of PC (CYP3A4; 100 μM, batch MWB): 29.3% | CYP3A4 mRNA induction, times of control group (CYP3A4; 100 μM, hepatocyte batch HUB): 6.01 | CYP3A4 mRNA induction, times of control group (CYP3A4; [6]): 13.7 | CYP3A4 mRNA induction, times of control group (CYP3A4; 100 μM, hepatocyte batch MWB): 15.2 | Induction effect on CYP3A4 (conclusion) (CYP3A4; 5, 25, and 100 µM, three batches of primary human hepatocytes): has an inducing effect | Average residual proportion of Deg-AZM (rCYP3A4; 25 pmol/mL CYP3A4 monomeric enzyme): 75.9% | Elimination proportion of Deg-AZM (rCYP3A4; CYP3A4 monomeric enzyme): greater than 15% | P-gp substrate assessment (P-gp [2]): might be the substrate of intestinal efflux transporter P-gp | Papp A→B at 1 h, 2 μM (P-gp [3]; 2 μM): 0.823 ± 0.0911 ×10⁻⁶ cm/s | Papp B→A at 1 h, 2 μM (P-gp [3]; 2 μM): 0.617 ± 0.0488 ×10⁻⁶ cm/s | Papp A→B at 1 h, 10 μM (P-gp [3]; 10 μM): 0.471 ± 0.0908 ×10⁻⁶ cm/s | Papp B→A at 1 h, 10 μM (P-gp [3]; 10 μM): 0.52 ± 0.119 ×10⁻⁶ cm/s | Papp A→B at 1 h, 50 μM (P-gp [3]; 50 μM): 0.589 ± 0.0315 ×10⁻⁶ cm/s | Papp B→A at 1 h, 50 μM (P-gp [3]; 50 μM): 0.586 ± 0.117 ×10⁻⁶ cm/s
